Data from ChEMBL document CHEMBL3822376, “Potent anticholinesterasic and neuroprotective pyranotacrines as inhibitors of beta-amyloid aggregation, oxidative stress and tau-phosphorylation for Alzheimer's disease” (Eur J Med Chem, 2016).
pEC50, pIC50: −log10 of the molar value. Activity calls are given as the source filed them. The calls are words filed in the database; no cut-off is given here.

Key:
in vitro [1] = details: human, SH-SY5Y cells
Description: Neurotoxicity in human SH-SY5Y cells assessed as cell viability at 25 uM after 24 hrs by XTT assay relative to control

SH-SY5Y [2] = test: cells; details: Homo sapiens, 24 h
Description: Neuroprotective activity against rotenone/oligomycin-A-induced cell death in human SH-SY5Y cells assessed as increase in cell viability after 24 hrs by XTT assay

in vitro [3] = details: human, SH-SY5Y cells; remark: listed apart in the source
Description: Neurotoxicity in human SH-SY5Y cells assessed as cell viability at 50 uM after 24 hrs by XTT assay relative to control

in vitro [4] = details: human, SH-SY5Y cells; remark: listed apart in the source
Description: Neurotoxicity in human SH-SY5Y cells assessed as cell viability at 5 uM after 24 hrs by XTT assay relative to control

in vitro [5] = details: human, HepG2 cells
Description: (§1) Hepatotoxicity in human HepG2 cells assessed as reduction in cell viability by MTT assay

in vitro [6] = details: human, SH-SY5Y cells; remark: listed apart in the source
Description: Neurotoxicity in human SH-SY5Y cells assessed as cell viability at 10 uM after 24 hrs by XTT assay relative to control

Acetylcholinesterase = Acetylcholinesterase (Electrophorus electricus, UniProt O42275)
Acetylcholinesterase, sequence (O42275 whole entry): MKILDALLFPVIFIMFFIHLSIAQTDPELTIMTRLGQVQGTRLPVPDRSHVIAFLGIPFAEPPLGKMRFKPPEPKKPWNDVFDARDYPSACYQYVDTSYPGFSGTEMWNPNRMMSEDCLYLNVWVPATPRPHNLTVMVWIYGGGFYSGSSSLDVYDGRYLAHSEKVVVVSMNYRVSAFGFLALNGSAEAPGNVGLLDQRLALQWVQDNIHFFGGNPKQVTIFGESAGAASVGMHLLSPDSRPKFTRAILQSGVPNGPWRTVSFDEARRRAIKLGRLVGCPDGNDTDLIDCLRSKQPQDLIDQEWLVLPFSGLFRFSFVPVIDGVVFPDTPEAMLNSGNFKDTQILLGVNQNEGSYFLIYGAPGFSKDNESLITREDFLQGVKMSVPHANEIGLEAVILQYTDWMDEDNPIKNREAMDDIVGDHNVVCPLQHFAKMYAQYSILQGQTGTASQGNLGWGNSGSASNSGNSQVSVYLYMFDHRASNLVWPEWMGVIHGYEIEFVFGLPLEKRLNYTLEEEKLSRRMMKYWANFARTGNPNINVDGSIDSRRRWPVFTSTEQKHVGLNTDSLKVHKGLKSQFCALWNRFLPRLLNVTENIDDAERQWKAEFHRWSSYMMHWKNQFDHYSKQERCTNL
Description: Inhibition of electric eel AChE using acetylcholine as substrate preincubated for 15 mins followed by substrate addition by Ellman's method

in vitro [7] = details: human, SH-SY5Y cells; remark: listed apart in the source
Description: Neurotoxicity in human SH-SY5Y cells assessed as cell viability at 0.1 uM after 24 hrs by XTT assay relative to control

SH-SY5Y [8] = test: Neuroprotective activity in human SH-SY5Y cells assessed as reversal of 20 nM okadaic acid-induced cell death at 1 to 10 uM after 24 hrs by XTT assay; format: functional, cell-based
in vitro [9] = details: human, SH-SY5Y cells; remark: listed apart in the source
Description: Neurotoxicity in human SH-SY5Y cells assessed as cell viability at 1 uM after 24 hrs by XTT assay relative to control

SH-SY5Y [10] = test: Neuroprotective activity against amyloid beta (1 to 40)-induced cell death in human SH-SY5Y cells assessed as increase in cell viability at 10 uM after 48 hrs by XTT assay; format: functional, cell-based
[11] = molecular target: Acetylcholinesterase (Electrophorus electricus) (UniProt O42275); test: Inhibition of electric eel AChE-induced amyloid beta (1 to 40) aggregation at 25 uM measured every 24 hrs for 7 days by Thioflavin T based fluorometric assay relative to control
Acetylcholinesterase (Electrophorus electricus), sequence (O42275 24-633 limits assumed): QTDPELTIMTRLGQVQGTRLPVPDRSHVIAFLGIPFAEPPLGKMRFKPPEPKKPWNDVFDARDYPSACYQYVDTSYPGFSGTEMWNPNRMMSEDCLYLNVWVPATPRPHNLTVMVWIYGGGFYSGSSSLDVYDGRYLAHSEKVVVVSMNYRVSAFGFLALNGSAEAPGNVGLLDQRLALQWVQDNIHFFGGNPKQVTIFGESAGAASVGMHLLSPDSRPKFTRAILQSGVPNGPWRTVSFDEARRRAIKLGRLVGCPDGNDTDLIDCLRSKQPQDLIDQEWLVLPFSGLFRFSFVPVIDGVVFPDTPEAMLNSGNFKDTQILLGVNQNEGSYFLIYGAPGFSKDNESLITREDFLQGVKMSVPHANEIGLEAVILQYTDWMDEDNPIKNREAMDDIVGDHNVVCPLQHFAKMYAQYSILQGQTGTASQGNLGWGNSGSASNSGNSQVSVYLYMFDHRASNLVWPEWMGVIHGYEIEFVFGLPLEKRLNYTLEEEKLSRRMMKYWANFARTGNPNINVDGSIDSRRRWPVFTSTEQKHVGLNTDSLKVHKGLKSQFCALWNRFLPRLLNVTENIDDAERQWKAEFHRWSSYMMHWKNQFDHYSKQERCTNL

SH-SY5Y [12] = test: Neuroprotective activity in human SH-SY5Y cells assessed as reversal of 15 nM okadaic acid-induced cell death at 1 to 10 uM after 24 hrs by XTT assay; format: functional, cell-based
[13] = molecular target: Cholinesterase (Equus caballus) (UniProt P81908); test: Inhibition of horse serum BuChE using […] as substrate at 50 uM preincubated for 15 mins followed by substrate addition by Ellman's method relative to control
Cholinesterase (Equus caballus), sequence (P81908 whole entry): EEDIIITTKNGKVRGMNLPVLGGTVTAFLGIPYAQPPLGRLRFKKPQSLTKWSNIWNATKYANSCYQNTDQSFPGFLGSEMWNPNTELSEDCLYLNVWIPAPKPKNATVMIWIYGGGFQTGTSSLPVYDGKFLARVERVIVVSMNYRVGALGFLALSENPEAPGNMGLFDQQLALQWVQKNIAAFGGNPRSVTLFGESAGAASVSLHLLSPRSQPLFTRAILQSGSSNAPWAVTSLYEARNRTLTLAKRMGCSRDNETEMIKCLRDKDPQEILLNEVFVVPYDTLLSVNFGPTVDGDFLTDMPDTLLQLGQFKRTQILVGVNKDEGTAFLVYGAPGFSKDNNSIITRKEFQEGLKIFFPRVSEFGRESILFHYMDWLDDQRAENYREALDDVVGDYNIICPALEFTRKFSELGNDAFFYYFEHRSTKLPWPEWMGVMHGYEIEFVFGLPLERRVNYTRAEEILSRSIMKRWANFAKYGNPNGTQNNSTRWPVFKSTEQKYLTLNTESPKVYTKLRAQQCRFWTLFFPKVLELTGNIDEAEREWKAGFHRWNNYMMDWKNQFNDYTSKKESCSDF

[14] = molecular target: Acetylcholinesterase (Homo sapiens) (UniProt P22303); test: Inhibition of AChE in human SH-SY5Y cells assessed as inhibition of amyloid beta (1 to 40) (unknown origin)-induced tau phosphorylation at Ser-396 residue at 5 to 10 uM after 48 hrs by Western blot analysis; format: cell-based
Acetylcholinesterase (Homo sapiens), sequence (P22303 whole entry): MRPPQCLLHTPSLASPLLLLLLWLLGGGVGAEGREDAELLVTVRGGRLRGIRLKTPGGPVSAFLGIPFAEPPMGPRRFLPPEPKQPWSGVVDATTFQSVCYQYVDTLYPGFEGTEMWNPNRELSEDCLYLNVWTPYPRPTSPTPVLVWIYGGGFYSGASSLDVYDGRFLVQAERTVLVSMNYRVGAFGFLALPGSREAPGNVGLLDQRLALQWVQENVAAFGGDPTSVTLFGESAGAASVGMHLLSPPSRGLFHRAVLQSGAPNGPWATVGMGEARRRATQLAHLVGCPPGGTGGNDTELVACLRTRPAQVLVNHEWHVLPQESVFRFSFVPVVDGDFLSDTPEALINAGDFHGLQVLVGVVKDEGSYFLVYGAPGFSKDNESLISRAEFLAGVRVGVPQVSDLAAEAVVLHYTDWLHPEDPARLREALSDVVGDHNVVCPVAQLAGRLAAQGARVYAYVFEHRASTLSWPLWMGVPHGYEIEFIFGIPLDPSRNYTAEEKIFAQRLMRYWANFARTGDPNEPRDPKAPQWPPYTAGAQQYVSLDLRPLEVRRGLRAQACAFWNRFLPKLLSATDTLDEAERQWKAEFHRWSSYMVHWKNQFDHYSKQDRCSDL

[15] = molecular target: Acetylcholinesterase (Homo sapiens) (UniProt P22303); test: Inhibition of AChE in human SH-SY5Y cells assessed as decrease in okadaic acid-induced tau oligomerization at 10 uM after 24 hrs by Western blot analysis; format: cell-based
SH-SY5Y [16] = test: Neuroprotective activity against 20 nM okadaic acid-induced cell death in human SH-SY5Y cells at 5 to 10 uM after 24 hrs by phase contrast microscopic analysis; format: functional, cell-based
SH-SY5Y [17] = test: Neuroprotective activity against amyloid beta (1 to 40)-induced cell death in human SH-SY5Y cells at 10 uM after 48 hrs by phase contrast microscopic analysis; format: functional, cell-based
in vitro [18] = details: human, HepG2 cells; remark: listed apart in the source
[19] = molecular target: Acetylcholinesterase (Homo sapiens) (UniProt P22303); test: Inhibition of AChE in human SH-SY5Y cells assessed as reduction in rotenone/oligomycin-A-induced tau phosphorylation at Ser-396 residue at 10 uM after 24 hrs by Western blot analysis; format: cell-based
[20] = molecular target: Acetylcholinesterase (Homo sapiens) (UniProt P22303); test: Inhibition of AChE in human SH-SY5Y cells assessed as inhibition of amyloid beta (1 to 40) (unknown origin)-induced amyloid beta aggregation at 5 to 10 uM measured every 24 hrs for 7 days by Thioflavin T based fluorometric assay; format: cell-based
[21] = molecular target: Acetylcholinesterase (Homo sapiens) (UniProt P22303); test: Inhibition of AChE in human SH-SY5Y cells assessed as decrease in okadaic acid-induced tau phosphorylation at Ser-396 residue at 10 uM after 24 hrs by Western blot analysis; format: cell-based

Description for HepG2: as §1

SMILES | viability at 24 h, 25 µM (in vitro [1]) | pEC50 (SH-SY5Y [2]) | viability at 24 h, 50 µM (in vitro [3]) | viability at 24 h, 5 µM (in vitro [4]) | pEC50 (in vitro [5]) | viability at 24 h, 10 µM (in vitro [6]) | pIC50 (Acetylcholinesterase) | viability at 24 h, 0.1 µM (in vitro [7]) | Activity (SH-SY5Y [8]) | viability at 24 h, 1 µM (in vitro [9]) | Activity (SH-SY5Y [10]) | inhibition [13] | also measured
COC(=O)C1=C(C)Oc2nc3c(c(N)c2C1c1cc2ccc(OC)cc2nc1Cl)CCC3 (stereo not drawn) | 118% | 4.93 | 93.2% | 114% | 3.27 | 98% | 5.78 | 104% | Active | 94.2% | Active |  | 
CCOC(=O)C1=C(C)Oc2nc3c(c(N)c2C1c1cc2ccc(OC)cc2nc1Cl)CCC3 (stereo not drawn) | 106% | 5.62 | 112% | 119% | 3.03 | 116% | 5.40 | 115% | Active | 135% |  |  | inhibition [11]: 28.3%
CCOC(=O)C1=C(C)Oc2nc3c(c(N)c2C1c1cc2cc(C)ccc2nc1Cl)CCCC3 (stereo not drawn) | 112% | 5.61 | 80.2% | 101% | 3.89 | 97.2% | 6.27 | 90.1% | Active | 82.9% | Active | 50% | Activity (SH-SY5Y [12]): Active
CCOC(=O)C1=C(C)Oc2nc3c(c(N)c2C1c1cc2ccc(OC)cc2nc1Cl)CCCC3 (stereo not drawn) | 123% | 5.64 | 129% | 131% | 3.03 | 125% | 5.82 | 103% | Active | 130% |  | 50% | 
CCOC(=O)C1=C(C)Oc2nc3c(c(N)c2C1c1cc2ccccc2nc1Cl)CCCC3 (stereo not drawn) | 95.5% | 5.81 | 93.6% | 99.7% |  | 96.5% | 6.32 | 110% | Active | 104% | Active | 50% | inhibition [14]: Active; pEC50 (HepG2): 2.32; inhibition [15]: Active; Activity (SH-SY5Y [16]): Active; Activity (SH-SY5Y [12]): Active; Activity (SH-SY5Y [17]): Active; selectivity ratio (in vitro [18]): 27; inhibition [19]: Active; inhibition [20]: Active; inhibition [21]: Active
CCOC(=O)C1=C(C)Oc2nc3c(c(N)c2C1c1cc2ccc(OC)cc2nc1Cl)CCCCC3 (stereo not drawn) | 109% | 5.33 | 106% | 125% | 3.18 | 106% | 5.01 | 84.2% | inactive | 99% | Active |  | 
COc1ccc2cc(C3C4=C(CC(C)(C)CC4=O)Oc4nc5c(c(N)c43)CCCC5)c(Cl)nc2c1 (stereo not drawn) | 113% | 4.91 | 90.6% | 113% | 3.04 | 103% | 4.83 | 93.8% | Active | 95.6% | Active |  | 
CCOC(=O)C1=C(C)Oc2nc3c(c(N)c2C1c1cc2cccc(OC)c2nc1Cl)CCCC3 (stereo not drawn) | 100% | 5.71 | 99.5% | 100% |  | 96.5% | 6.21 | 107% | Active | 91.9% |  |  | pEC50 (HepG2): 2.97; Activity (SH-SY5Y [12]): Active
COc1ccc2cc(C3C4=C(CC(C)(C)CC4=O)Oc4nc5c(c(N)c43)CCCCC5)c(Cl)nc2c1 (stereo not drawn) | 118% | 5.25 | 103% | 111% | 3.48 | 97.3% | 5.55 | 92.2% | Active | 97.3% |  |  | 
COC(=O)C1=C(C)Oc2nc3c(c(N)c2C1c1cc2ccc(OC)cc2nc1Cl)CCCCC3 (stereo not drawn) | 98.6% | 5.25 | 75.1% | 95.9% | 3.13 | 85.1% | 5.73 | 90.8% | Active | 93.2% | Active | 50% | 
COc1ccc2cc(C3C4=C(CC(C)(C)CC4=O)Oc4nc5c(c(N)c43)CCC5)c(Cl)nc2c1 (stereo not drawn) | 124% | 6.20 | 94.9% | 113% |  | 102% | 6.24 | 85% | inactive | 91.6% |  |  | pEC50 (HepG2): 2.72; selectivity ratio (in vitro [18]): 11
CCOC(=O)C1=C(C)Oc2nc3c(c(N)c2C1c1cc2cc(OC)ccc2nc1Cl)CCCC3 (stereo not drawn) | 125% | 6.47 | 68.5% | 135% | 4.14 | 116% | 5.65 | 128% | inactive | 110% |  |  | 
